From patent US20230219956A1 (BETTA PHARMACEUTICALS CO.,LTD, priority 2019, published 2023)

Tests used:
H358 cells = experiment: Cell proliferation assay, H358 cells (Cell-titer Glo); assay type: cell-based; details: Homo sapiens, NCI-H358, 96 h incubation
Outline: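 H358 cells, 2000 per well in ultra-low-attachment plates, treated after overnight culture with compound at 10000 to 1.5 nM plus 0 (0.25% DMSO final) for 96 h at 37 °C, 5% CO2. Cell-titer Glo luminescence, normalised to DMSO and cell-free controls; IC50 from curve fit.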

MIA-PACA-2 cells = experiment: Cell proliferation assay, MIA-PACA-2 cells (Cell-titer Glo); assay type: cell-based; details: Homo sapiens, 96 h incubation
Outline: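 MIA-PACA-2 cells, 600 per well in ultra-low-attachment plates, exposed 96 h at 37 °C to compound at 0.025–10000 nM final (0.25% DMSO). Viability by CellTiter-Glo luminescence; inhibition normalised to DMSO and cell-free controls, IC50 from curve fit.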

[1] = Permeability assay, Caco-2 monolayer cell model; assay type: in vitro ADME; details: human, Caco-2, compound 5 μM, Verapamil 0 μM; for efflux ratio at 120 min, 5 μM: read-out: RE (Efflux Ratio)
Procedure: The Caco-2 monolayer cell model was used to determine the bidirectional permeability and efflux rate of the example compounds and the comparative compounds. In the experiment, 50 μL of 6.86×10^5 cells/mL Caco-2 cells (passage 45) were seeded into 96-well cell culture plates, and cultured continuously for 14-18 days for transport experiments. The corresponding compound was administered bidirectionally with or without verapamil (P glycoprotein (P-gp) inhibitor), at a concentration of 5 μM. At 37° C., after incubating with shaking at 150 rpm for 120 minutes, the top and basal samples were collected, and the content of each compound in the samples was determined by liquid chromatography tandem mass spectrometry (LC/MS/MS).
Refer to the Table 4 for permeability data of some compounds in the examples.

CALU-1 cells = experiment: Cell proliferation assay, CALU-1 cells (Cell-titer Glo); assay type: cell-based; details: Homo sapiens, 120 h incubation
Procedure: The CALU-1 cells were spread on a 96-well ultra-low adsorption plate with 1000 cells and 190 μL/well. After incubating overnight, compound solutions of gradient concentration was prepared, and added 10 μL of DMSO solution of the test compound of each concentration to the cells of each well. The final concentration of the compound is 30000, 10000, 3333.3, 1111.1, 370.4, 123.5, 41.2, 13.7, 4.6, 0 nM (the final concentration of DMSO is 0.25%). Incubated for 120 h at 37° C. and 5% CO2. 60 μL of Cell-titer Glo working solution was added to each well, shaked and mixed, and incubated at room temperature for 10 minutes. The multi-functional microplate reader read the luminescence value, and converted the luminescence value reading into inhibition percentage.
Inhibition percentage=(maximum value−reading)/(maximum value−minimum value)*100.
The “maximum value” was the DMSO control, the “minimum value” indicates the cell-free control group.
Graphpad Prism software was used to perform curve fitting and obtain IC50 value.
The compounds of the examples have good inhibition on CALU-1 cells, and their activity is better than that of ARS-1620. Refer to Table 2 for the IC50 data of some compounds in the examples inhibiting CALU-1 cells.

SMILES | IC50 (H358 cells) [nM] | IC50 (MIA-PACA-2 cells) [nM] | Papp A→B at 120 min, 5 μM [1] [×10⁻⁶ cm/s] | Papp B→A at 120 min, 5 μM [1] [×10⁻⁶ cm/s] | efflux ratio at 120 min, 5 μM [1] | IC50 (CALU-1 cells) [nM]
C=CC(=O)N1CC2(CCN(c3nc(C4CCN(C5CCOCC5)CC4)nc4c(OCC(F)(F)F)c(-c5c(C)ccc6[nH]ncc56)c(C=C)cc34)CC2)C1 [Example 58, 1-(7-(7-(5-methyl-1H-indazole-4-yl)-2-(1-(tetrahydro-2H-pyran-4-yl)piperidin-4-yl)-8-(2,2,2-trifluoroethoxy)-6-vinylquinazolin-4-yl)-2,7-diazspiro [3.5]nonan-2-yl) propyl-2-en-1-one] | 4.4 | 2.6 | 0.34 | 10.3 | 30.6 | 
C=CC(=O)N1CC2(CCN(c3nc(C4CCN(C(C)=O)CC4)nc4c(OCC(F)(F)F)c(-c5c(C)ccc6[nH]ncc56)c(C=C)cc34)CC2)C1 [Example 14, 1-(7-(2-(1-acetylpiperidin-4-yl)-7-(5-methyl-1H-indazol-4-yl)-8-(2,2,2-trifluoroethoxy)-6-vinylquinazolin-4-yl)-2,7-diazaspiro[3.5]nonan-2-yl)prop-2-en-1-one] | 6.4 | 40.6 | 1.33 | 5.82 | 4.36 | 
C=CC(=O)N1CC2(CCN(c3nc(C4CCN(C)CC4)nc4c(F)c(-c5c(C)ccc6[nH]ncc56)c(C=C)cc34)CC2)C1 [Compound 5, 1-(7-(8-fluoro-7-(5-methyl-1H-indazol-4-yl)-2-(1-methylpiperidin-4-yl)-synthesis of 6-vinylquinazolin-4-yl)-2,7-diazaspiro[3.5]nonan-2-yl)prop-2-en-1-one] |  |  |  |  |  | 103
C=CC(=O)N1CC2(CCN(c3nc(C4CCN(C)C4)nc4c(OCC(F)(F)F)c(-c5c(C)ccc6[nH]ncc56)c(C=C)cc34)CC2)C1 (stereo not drawn) [Compound 8] |  |  |  |  |  | 4.6
C=CC(=O)N1CCN(c2ncnc3c(F)c(-c4c(O)cccc4F)c(Cl)cc23)CC1 [ARS-1620, reference compound] |  | 284 |  |  |  | 245
C=CC(=O)N1CC2(CCN(c3nc(C4CCOCC4)nc4c(OCC(F)(F)F)c(-c5c(C)ccc6[nH]ncc56)c(C=C)cc34)CC2)C1 [Compound 6, 1-(7-(7-(5-methyl-1H-indazol-4-yl)-2-(tetrahydro-2H-pyran-4-yl)-8-(2,2,2-trifluoroethoxy)-6-vinylquinazolin-4-yl)-2,7-diazaspiro[3.5]nonan-2-yl)prop-2-en-1-one] |  |  |  |  |  | 45.7
C=CC(=O)N1CC2(CCN(c3nc(C4CCN(C)CC4)nc4c(OCC(F)(F)F)c(-c5c(C)ccc6[nH]ncc56)c(C=C)cc34)CC2)C1 [Compound 1, 1-(7-(7-(5-methyl-1H-indazol-4-yl)-2-(1 methylpiperidin-4-yl)-8-(2,2,2-trifluoroethoxy)-6-vinylquinazolin-4-yl)-2,7-diazaspiro[3.5]nonan-2-yl)prop-2-en-1-one] |  |  | 0.51 | 7.18 | 14.2 | 2.7
C=CC(=O)N1CC2(CCN(c3nc(OC4CCN(C5CCOCC5)CC4)nc4c(OCC(F)(F)F)c(-c5c(C)ccc6[nH]ncc56)c(C=C)cc34)CC2)C1 [Compound D1, reference compound] |  |  | 0.06 | 6.75 | 113 | 
C=CC(=O)N1CC2(CCN(c3nc(C4CCN(CC(=O)C(C)(C)C)CC4)nc4c(OCC(F)(F)F)c(-c5c(C)ccc6[nH]ncc56)c(C=C)cc34)CC2)C1 [Example 70, 1-(4-(4-(2-acryloyl-2,7-diazspiro [3.5]nonan-7-yl)-7-(5-methyl-1H-indazole-4-yl)-8-(2,2,2-trifluoroethoxy)-6-vinylquinazolin-2-yl)piperidin-1-yl)-3,3-dimethylbutane-2-one] | 15.5 | 13.7 |  |  |  | 
Cc1ccc2[nH]ncc2c1-c1c(Cl)cc2c(N3CCC4(CC3)CN(C(=O)/C=C/CN(C)C)C4)nc(C3CCN(C)CC3)nc2c1OCC(F)(F)F [Example 87, (E)-1-(7-(6-chloro-7-(5-methyl-1H-indazol-4-yl)-2-(1-methylpiperidine-4-yl)-8-(2,2,2-trifluoroethoxy)quinazolin-4-yl)-2,7-diazaspiro[3.5]nonan-2-yl)-4-(dimethylamino) but-2-en-1-one] | 1940 | 2190 |  |  |  | 
C=CC(=O)N1CC2(CCN(c3nc(C4CCN(C)CC4)nc4c(OCC(F)(F)F)c(-c5c(C)ccc6[nH]ncc56)c(CC)cc34)CC2)C1 [Compound 4, 1-(7-(6-ethyl-7-(5-methyl-1H-indazol-4-yl)-2-(1-methylpiperidin-4-yl)-8-(2,2,2-trifluoroethoxy)quinazolin-4-yl)-2,7-diazaspiro[3.5]nonan-2-yl)prop-2-en-1-one] |  |  | 0.21 | 9.64 | 46.5 | 2.9
C=CC(=O)N1CC2(CCN(c3nc(C4CN(C5COC5)C4)nc4c(OCC(F)(F)F)c(-c5c(C)ccc6[nH]ncc56)c(CC)cc34)CC2)C1 [Example 40, 1-(7-(6-ethyl-7-(5-methyl-1H-indazole-4-yl)-2-(1-(oxacyclobutan-3-yl)azacyclobutane-3-yl)-8-(2,2,2-trifluoroethoxy)quinazolin-4-yl) 2,7-diazspiro [3.5]nonan-2-yl) propyl-2-en-1-one] | 39 | 47.7 |  |  |  | 
C=CC(=O)N1CC2(CCN(c3nc(C4CCN(CCC#N)CC4)nc4c(OCC(F)(F)F)c(-c5c(C)ccc6[nH]ncc56)c(C=C)cc34)CC2)C1 [Example 59, 3-(4-(4-(2-acryloyl-2,7-diazazospiro [3.5]nonan-7-yl)-7-(5-methyl-1H-indazole-4-yl)-8-(2,2,2-trifluoroethoxy)-6-vinylquinazolin-2-yl)piperidin-1-yl) propionitrile] | 6.4 | 6.9 |  |  |  | 
C=Cc1cc2c(N3CCC4(CC3)CN(C(=O)C(=C)F)C4)nc(C3CCN(C)CC3)nc2c(OCC(F)(F)F)c1-c1c(C)ccc2[nH]ncc12 [Example 84, 2-Fluoro-1-(7-(7-(5-methyl-1H-indazol-4-yl)-2-(1-methylpiperidin-4-yl)-8-(2,2,2-trifluoroethoxy)-6-vinylquinazolin-4-yl)-2,7-diazaspiro[3.5]nonan-2-yl)propan-2-en-1-one] | 16.5 | 60.3 |  |  |  | 
